According to ChEMBL document CHEMBL1828555, “Primary amino acid derivatives: substitution of the 4'-N'-benzylamide site in (R)-N'-benzyl 2-amino-3-methylbutanamide, (R)-N'-benzyl 2-amino-3,3-dimethylbutanamide, and (R)-N'-benzyl 2-amino-3-methoxypropionamide provides potent anticonvulsants with pain-attenuating properties” (J Med Chem, 2011):
Calls of active or inactive are those of the source. The rule behind the calls is not given here.

How the values were obtained:
Rattus norvegicus [1] = assay: Toxicity in po dosed albino Sprague-Dawley rat assessed as time of peak effect for behavioural toxicity; assay type: organism-based; conditions: in vivo
Mus musculus [2] = assay: Anticonvulsant activity in ip dosed albino CF1 mouse assessed as protection against maximal electroshock-induced seizure after 30 mins; assay type: functional; conditions: 0.5 h
Mus musculus [3] = assay: Anticonvulsant activity in ip dosed albino CF1 mouse assessed as time of peak effect for protection against 6 Hz psychomotor seizure; assay type: functional
Rattus norvegicus [4] = assay: Anticonvulsant activity in po dosed albino Sprague-Dawley rat assessed as protection against maximal electroshock seizure; assay type: functional
Mus musculus [5] = assay: Anticonvulsant activity in ip dosed albino CF1 mouse assessed as protection against 6 Hz psychomotor seizure after 30 mins; assay type: functional; conditions: 0.5 h
Mus musculus [6] = assay: Protective index, ratio of TD50 for ip dosed albino CF1 mouse to ED50 for ip dosed albino CF1 mouse by maximal electroshock test; assay type: functional
Mus musculus [7] = assay: Analgesic activity in ip dosed albino CF1 mouse assessed as time of peak effect for reduction of formalin-induced neuropathic pain; assay type: functional
Mus musculus [8] = assay: Anticonvulsant activity in ip dosed albino CF1 mouse assessed as time of peak effect for protection against maximal electroshock-induced seizure; assay type: functional
Mus musculus [9] = assay: Analgesic activity in ip dosed albino CF1 mouse assessed as reduction of formalin-induced neuropathic pain after 30 mins; assay type: functional; conditions: 0.5 h
Mus musculus [10] = assay: Neurotoxicity in ip dosed albino CF1 mouse assessed as time of peak effect for median neurological impairing; assay type: toxicity, organism-based; conditions: in vivo
Rattus norvegicus [11] = assay: Anticonvulsant activity in po dosed albino Sprague-Dawley rat assessed as time of peak effect for protection against maximal electroshock seizure; assay type: functional
[12] = Neurotoxicity in ip dosed albino CF1 mouse assessed as median neurological impairing dose after 30 mins; assay type: toxicity, organism-based; conditions: in vivo
Mus musculus [13] = assay: Anticonvulsant activity in ip dosed albino CF1 mouse assessed as protection against subcutaneous pentylenetetrazol-induced seizure; assay type: functional, organism-based
[14] = Toxicity in po dosed albino Sprague-Dawley rat assessed as behavioural toxicity; assay type: organism-based; conditions: in vivo
Mus musculus [15] = assay: Anticonvulsant activity in ip dosed maximal electroshock seizure model of NMRI mouse assessed as minimal active dose after 30 mins; assay type: functional
Mus musculus [16] = assay: Protective index, ratio of TD50 for ip dosed NMRI mouse to ED50 for ip dosed NMRI mouse by maximal electroshock test; assay type: functional
[17] = Neurotoxicity in ip dosed NMRI mouse assessed as median neurological impairing dose after 30 mins by rotarod test; assay type: toxicity, organism-based; conditions: in vivo
Mus musculus [18] = assay: Anticonvulsant activity in ip dosed 6 Hz psychomotor seizure model of NMRI mouse assessed as protection against seizure after 30 minutes; assay type: functional; conditions: 0.5 h
Mus musculus [19] = assay: Analgesic activity in ip dosed NMRI mouse assessed as reduction in formalin-induced neuropathic pain after 30 mins; assay type: functional; conditions: 0.5 h
Rattus norvegicus [20] = assay: Protective index, ratio of TD50 for po dosed albino Sprague-Dawley rat to ED50 for po dosed albino Sprague-Dawley rat by maximal electroshock test; assay type: functional
Mus musculus [21] = assay: Anticonvulsant activity in ip dosed NMRI mouse assessed as protection against maximal electroshock seizure after 30 mins; assay type: functional; conditions: 0.5 h
Mus musculus [22] = assay: Anticonvulsant activity in ip dosed 6 Hz psychomotor seizure model of NMRI mouse assessed as minimal active dose after 30 mins; assay type: functional
Mus musculus [23] = assay: Analgesic activity in NMRI mouse assessed as reduction in formalin-induced neuropathic pain at 110 mg/kg, ip; assay type: functional; parameters: scale not given: the % may be the effect or the level left; conditions: route intraperitoneal
Mus musculus [24] = assay: Analgesic activity in NMRI mouse assessed as reduction in formalin-induced neuropathic pain at 12 mg/kg, ip; assay type: functional, organism-based; parameters: dose 12 mg/kg
Mus musculus [25] = assay: Analgesic activity in NMRI mouse assessed as reduction in formalin-induced neuropathic pain at 37 mg/kg, ip; assay type: functional; parameters: scale not given: the % may be the effect or the level left; conditions: route intraperitoneal
Mus musculus [26] = assay: Protective index, ratio of TD50 for ip dosed NMRI mouse to ED50 for ip dosed formalin-induced neuropathic pain model of NMRI mouse; assay type: functional

Row | SMILES | ED50 (Mus musculus [2]) [mg/kg] | Time (Mus musculus [3]) [h] | ED50 (Rattus norvegicus [4]) [mg/kg] | ED50 (Mus musculus [5]) [mg/kg] | Ratio TD50/ED50 (Mus musculus [6]) | Time (Mus musculus [7]) [h] | Time (Mus musculus [8]) [h] | ED50 (Mus musculus [9]) [mg/kg] | Time (Mus musculus [10]) [h] | Time (Rattus norvegicus [11]) [h] | TD50 at 0.5 h [12] [mg/kg] | Activity (Mus musculus [13]) | TD50 [14] [mg/kg] | Ratio TD50/ED50 (Mus musculus [16]) | ED50 (Mus musculus [18]) [mg/kg] | ED50 (Mus musculus [19]) [mg/kg] | Ratio TD50/ED50 (Rattus norvegicus [20]) | ED50 (Mus musculus [21]) [mg/kg] | further results
1 | CC(C)(C)[C@@H](N)C(=O)NCc1ccc(Cl)cc1 | 25 | 0.25 | 30 | < 100 | 3.4 | 0.25 | 0.25 | 25 | 0.5 | 0.25 | 84 | inactive | > 30 |  |  |  |  |  | Time (Rattus norvegicus [1]): 0.25 h
2 | CC(C)[C@@H](N)C(=O)NCc1ccccc1 | 15 | 0.25 | 11 | < 100 | 4.8 | 0.25 | 0.25 | 15 | 0.25 | 0.25 | 70 |  | > 500 | 2.9 | 74 | 20 | >45 |  | MAC (Mus musculus [15]): 16 mg/kg; TD50 at 0.5 h [17]: 47 mg/kg
3 | COC[C@@H](N)C(=O)NCc1ccc(-c2ccccc2)cc1.Cl |  |  |  |  |  |  |  |  |  |  |  | inactive |  |  |  | > 33 |  | 15 | MAC (Mus musculus [22]): 59 mg/kg
4 | CC(C)[C@@H](N)C(=O)NCc1ccc(OCc2cccc(F)c2)cc1 |  |  |  |  |  |  |  |  |  |  |  | inactive |  |  | > 110 |  |  | 12 | Activity (Mus musculus [23]): 80%
5 | CC(C)[C@@H](N)C(=O)NCc1ccc(OC(F)(F)F)cc1 | 16 | 0.5 | 18 | 28 | 5.3 | 0.25 | 0.25 | 16 | 0.25 | 1 | 84 | inactive | > 500 |  |  |  | >27 |  | 
6 | CC(C)[C@@H](N)C(=O)NCc1ccc(Cl)cc1 | 22 | 0.25 |  | 50 | 3.4 | 0.25 | 0.25 | 22 | 0.25 |  | 74 | inactive |  |  |  |  |  |  | 
7 | CC(C)[C@@H](N)C(=O)NCc1ccc(C(F)(F)F)cc1 | 14 | 0.5 | 13 | 30 | 4.1 |  | 0.5 |  | 0.25 | 1 | 57 | inactive | > 500 |  |  |  | >38 |  | 
8 | C[C@@H](N)C(=O)NCc1ccccc1 | 10 |  |  |  |  |  |  | 69 |  |  | 100 |  |  |  |  |  |  |  | 
9 | CC(C)(C)[C@@H](N)C(=O)NCc1ccccc1 | 14 | 0.25 | 11 | 30 | 4.7 |  | 0.25 |  | 0.25 | 0.25 | 66 | inactive | > 500 | 4.7 | > 71 | > 22 | >45 | 13 | 
10 | COC[C@@H](N)C(=O)NCc1ccc(COc2cccc(F)c2)cc1 | 10 |  | 12 | < 30 |  |  | 0.5 |  | 0.5 | 0.5 | 30 | inactive | > 500 | 5.4 | 58 |  | >42 | 8.9 | Activity (Mus musculus [24]): inactive; TD50 at 0.5 h [17]: 46 mg/kg; Activity (Mus musculus [25]): 94%
11 | COC[C@@H](N)C(=O)NCc1ccc(Br)cc1.Cl |  |  |  |  |  |  |  |  |  |  |  | inactive |  | 3.7 | > 180 | 70 |  | 31 | Ratio TD50/ED50 (Mus musculus [26]): 1.6; TD50 at 0.5 h [17]: 115 mg/kg
12 | CC(C)[C@@H](N)C(=O)NCc1ccc(F)cc1 | 32 | 0.25 | 21 | 63 | 3 | 0.25 | 0.25 | 32 | 0.25 | 0.5 | 97 | inactive | > 500 |  |  |  | >24 |  | 
